Assay [1] has as its target T1, NR2B (Homo sapiens, UniProt Q05586+Q13224).
The target of assay [2] is T1, NR2B. The note with it: Kb determined by Schild analysis; read-out: 2B (μM) Kb; cited from earlier work.
The target of assay [3] is T2, NR2A (Homo sapiens, UniProt Q05586+Q12879). The note with it: cited from earlier work.
The target of assay [4] is T3, NR2D (Homo sapiens, UniProt O15399+Q05586). The note with it: Ki estimated from equilibrium binding displacement IC50 at a single concentration; low affinity site; read-out: 2D (μM) Ki*; cited from earlier work.
T3 sequence (O15399 28-1336, other chains not shown): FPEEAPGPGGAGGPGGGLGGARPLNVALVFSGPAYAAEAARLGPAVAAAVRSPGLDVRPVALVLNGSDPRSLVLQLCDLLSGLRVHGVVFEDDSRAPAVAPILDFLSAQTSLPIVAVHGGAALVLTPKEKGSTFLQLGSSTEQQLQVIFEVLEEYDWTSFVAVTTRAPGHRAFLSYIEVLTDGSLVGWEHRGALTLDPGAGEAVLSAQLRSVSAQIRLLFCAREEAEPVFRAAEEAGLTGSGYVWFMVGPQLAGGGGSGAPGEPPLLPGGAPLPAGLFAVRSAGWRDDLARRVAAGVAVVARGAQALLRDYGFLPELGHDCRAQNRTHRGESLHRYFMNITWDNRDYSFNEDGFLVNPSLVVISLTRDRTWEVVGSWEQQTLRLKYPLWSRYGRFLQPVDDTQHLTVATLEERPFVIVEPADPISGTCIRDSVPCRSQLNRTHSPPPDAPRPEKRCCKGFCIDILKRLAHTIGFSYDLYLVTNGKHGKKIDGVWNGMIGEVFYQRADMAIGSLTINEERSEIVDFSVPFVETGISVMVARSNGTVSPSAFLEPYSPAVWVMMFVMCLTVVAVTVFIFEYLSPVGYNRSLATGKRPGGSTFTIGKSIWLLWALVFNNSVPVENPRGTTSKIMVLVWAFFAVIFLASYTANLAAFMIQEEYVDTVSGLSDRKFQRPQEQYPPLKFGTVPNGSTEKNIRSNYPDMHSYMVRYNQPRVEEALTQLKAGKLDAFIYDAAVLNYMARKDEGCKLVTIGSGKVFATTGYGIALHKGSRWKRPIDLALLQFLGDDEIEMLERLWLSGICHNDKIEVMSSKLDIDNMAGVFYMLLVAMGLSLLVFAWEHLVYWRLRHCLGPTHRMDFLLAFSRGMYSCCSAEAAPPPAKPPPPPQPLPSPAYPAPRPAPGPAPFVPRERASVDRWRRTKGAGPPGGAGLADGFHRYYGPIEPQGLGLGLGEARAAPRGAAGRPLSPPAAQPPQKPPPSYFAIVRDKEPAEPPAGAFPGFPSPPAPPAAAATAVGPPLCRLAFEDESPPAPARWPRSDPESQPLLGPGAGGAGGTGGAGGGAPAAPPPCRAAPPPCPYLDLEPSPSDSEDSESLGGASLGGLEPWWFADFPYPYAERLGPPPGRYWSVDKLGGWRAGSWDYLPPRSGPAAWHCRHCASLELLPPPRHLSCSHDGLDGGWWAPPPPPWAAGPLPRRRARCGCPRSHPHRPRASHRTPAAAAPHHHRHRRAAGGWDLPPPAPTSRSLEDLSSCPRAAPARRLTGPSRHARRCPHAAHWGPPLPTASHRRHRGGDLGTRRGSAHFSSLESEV
Assay [5] addresses T3, NR2D. Put plainly: Literature equilibrium binding displacement, NR2D (Table 1).
The target in assay [6] is T1, NR2B. In words: Literature equilibrium binding displacement, NR2B (Table 1).
The target in assay [7] is T1, NR2B. The settings on record: Ki estimated from equilibrium binding displacement IC50 at a single concentration; low affinity site; read-out: 2B (μM) Ki*; cited from earlier work.
Assay [8] has as its target T2, NR2A. The note with it: Ki estimated from equilibrium binding displacement IC50 at a single concentration; low affinity site; read-out: 2A (μM) Ki*; cited from earlier work.
The target in a further assay is NR2C (Homo sapiens, UniProt Q05586+Q14957). The settings on record: Ki estimated from equilibrium binding displacement IC50 at a single concentration; low affinity site; read-out: 2C (μM) Ki*; cited from earlier work.

Marks after values point to notes of the source that are not given here.

T2 sequence (Q12879 23-1464, other chains not shown): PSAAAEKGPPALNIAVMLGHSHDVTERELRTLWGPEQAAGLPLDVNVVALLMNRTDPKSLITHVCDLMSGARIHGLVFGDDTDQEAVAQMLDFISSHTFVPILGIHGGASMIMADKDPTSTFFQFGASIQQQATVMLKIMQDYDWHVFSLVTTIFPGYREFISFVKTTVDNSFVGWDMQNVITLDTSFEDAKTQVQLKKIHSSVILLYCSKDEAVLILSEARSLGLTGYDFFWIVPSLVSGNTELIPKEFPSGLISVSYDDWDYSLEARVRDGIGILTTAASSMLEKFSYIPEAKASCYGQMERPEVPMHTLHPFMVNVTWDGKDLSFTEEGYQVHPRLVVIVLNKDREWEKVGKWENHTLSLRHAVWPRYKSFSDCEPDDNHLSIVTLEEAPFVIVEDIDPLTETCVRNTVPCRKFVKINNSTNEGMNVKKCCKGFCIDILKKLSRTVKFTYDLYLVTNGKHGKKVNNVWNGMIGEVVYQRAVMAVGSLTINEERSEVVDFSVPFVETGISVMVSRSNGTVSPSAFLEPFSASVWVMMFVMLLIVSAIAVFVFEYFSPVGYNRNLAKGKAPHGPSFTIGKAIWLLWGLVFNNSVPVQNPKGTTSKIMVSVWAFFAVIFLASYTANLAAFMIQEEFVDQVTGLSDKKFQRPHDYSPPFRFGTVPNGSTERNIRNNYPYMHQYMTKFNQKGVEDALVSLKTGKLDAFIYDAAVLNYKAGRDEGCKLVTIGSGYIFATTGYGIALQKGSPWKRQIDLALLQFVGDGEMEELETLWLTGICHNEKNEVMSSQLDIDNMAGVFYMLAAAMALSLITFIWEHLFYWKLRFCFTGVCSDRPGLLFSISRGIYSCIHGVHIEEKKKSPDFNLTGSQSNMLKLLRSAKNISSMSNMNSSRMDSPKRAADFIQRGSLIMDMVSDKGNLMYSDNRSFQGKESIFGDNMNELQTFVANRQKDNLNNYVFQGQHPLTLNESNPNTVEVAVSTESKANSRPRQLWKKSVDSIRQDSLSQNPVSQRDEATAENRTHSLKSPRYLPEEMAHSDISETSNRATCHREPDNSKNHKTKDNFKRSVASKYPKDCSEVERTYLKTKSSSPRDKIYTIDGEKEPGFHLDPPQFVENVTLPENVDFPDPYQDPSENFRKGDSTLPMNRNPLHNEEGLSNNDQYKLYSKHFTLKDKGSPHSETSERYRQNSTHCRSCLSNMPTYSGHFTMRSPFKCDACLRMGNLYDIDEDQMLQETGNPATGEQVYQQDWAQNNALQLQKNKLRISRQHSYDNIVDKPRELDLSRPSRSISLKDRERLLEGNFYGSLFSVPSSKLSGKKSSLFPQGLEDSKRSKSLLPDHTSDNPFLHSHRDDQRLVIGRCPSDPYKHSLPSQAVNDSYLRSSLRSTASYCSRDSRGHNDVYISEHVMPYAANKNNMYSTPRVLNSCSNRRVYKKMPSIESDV
T1 sequence (Q13224 27-1484, other chains not shown): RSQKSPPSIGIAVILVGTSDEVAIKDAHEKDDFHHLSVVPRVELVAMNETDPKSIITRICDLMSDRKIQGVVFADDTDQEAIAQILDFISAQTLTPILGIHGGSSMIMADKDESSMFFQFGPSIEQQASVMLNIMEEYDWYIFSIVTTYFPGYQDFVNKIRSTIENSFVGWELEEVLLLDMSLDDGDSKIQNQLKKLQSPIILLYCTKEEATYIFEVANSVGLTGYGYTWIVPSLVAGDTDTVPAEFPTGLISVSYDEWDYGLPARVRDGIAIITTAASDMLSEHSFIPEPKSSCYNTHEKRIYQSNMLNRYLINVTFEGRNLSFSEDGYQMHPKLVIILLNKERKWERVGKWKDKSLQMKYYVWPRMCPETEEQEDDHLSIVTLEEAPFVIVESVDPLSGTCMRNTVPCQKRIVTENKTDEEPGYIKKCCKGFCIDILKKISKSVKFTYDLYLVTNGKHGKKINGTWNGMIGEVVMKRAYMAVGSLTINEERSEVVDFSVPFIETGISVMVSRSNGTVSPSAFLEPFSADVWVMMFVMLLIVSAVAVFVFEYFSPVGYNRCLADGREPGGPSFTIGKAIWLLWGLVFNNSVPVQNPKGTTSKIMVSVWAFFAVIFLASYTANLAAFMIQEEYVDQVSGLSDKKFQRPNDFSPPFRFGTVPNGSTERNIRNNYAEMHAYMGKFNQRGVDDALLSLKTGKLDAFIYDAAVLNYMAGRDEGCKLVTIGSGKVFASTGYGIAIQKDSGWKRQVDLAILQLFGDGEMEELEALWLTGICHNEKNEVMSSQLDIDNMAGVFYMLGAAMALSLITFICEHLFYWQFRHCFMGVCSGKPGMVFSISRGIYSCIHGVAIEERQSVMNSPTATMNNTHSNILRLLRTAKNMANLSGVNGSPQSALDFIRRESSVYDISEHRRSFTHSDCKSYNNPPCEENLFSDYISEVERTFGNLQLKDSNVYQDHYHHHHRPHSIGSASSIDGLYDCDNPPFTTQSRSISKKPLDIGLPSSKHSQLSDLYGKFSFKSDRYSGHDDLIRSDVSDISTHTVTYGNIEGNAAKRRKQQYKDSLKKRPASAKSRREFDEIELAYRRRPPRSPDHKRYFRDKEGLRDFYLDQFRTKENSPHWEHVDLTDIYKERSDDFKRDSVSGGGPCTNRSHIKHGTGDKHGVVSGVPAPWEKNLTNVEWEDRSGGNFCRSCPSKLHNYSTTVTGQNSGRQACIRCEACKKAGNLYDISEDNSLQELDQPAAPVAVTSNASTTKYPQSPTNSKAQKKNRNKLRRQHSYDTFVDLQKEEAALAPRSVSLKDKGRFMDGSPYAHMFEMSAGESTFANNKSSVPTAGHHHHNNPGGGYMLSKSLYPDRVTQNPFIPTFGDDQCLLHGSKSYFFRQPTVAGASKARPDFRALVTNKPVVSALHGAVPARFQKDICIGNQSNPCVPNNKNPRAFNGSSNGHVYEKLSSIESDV

With `C[C@H](N[C@@H](c1cccc2[nH]c(=O)c(=O)[nH]c12)P(=O)(O)O)c1ccc(Br)cc1` [NVP-AAM07], the “2A/2B (ratio of Kb)” value on NR2B [1] came to 0.2. The Kb is 78 µM at NR2B [2] and 15.2 µM at NR2A [3] (Kb determined by Schild analysis, read-out: 2A (μM) Kb). Moreover, on NR2A [3] (Schild analysis (Kb)), the “selectivity for NR2A over NR2B” value was 5 fold.
For the compound `O=C(/C=C/c1c(C(=O)[O-])[nH]c2cc(Cl)cc(Cl)c12)Nc1ccccc1.[Na+]` [GV150, 526A], the potency estimated from few doses is 0.05 µM at NR2D [4], 0.08 µM on NR2B [7], 0.08 µM on NR2A [8] and 0.11 µM at NR2C. The “2A/2D (ratio of Ki*)” value on NR2D [5] was 1.6*. Further, on NR2B [6], the “2A/2B (ratio of Ki*)” value was 1.0*.

Source of the values: patent publication US20110319416A1, “Subunit Selective NMDA Receptor Antagonists For The Treatment Of Neurological Conditions” (EMORY UNIVERSITY, priority 2009, published 2011).
